This passage reports IC50 results from patent US7462639B2, “Aminopyrazole derivatives” (Hoffmann-La Roche Inc., priority 2005, dated 2008).

Experiment [1] has as its system HCT 116 cells. Kind of experiment: Viability assay in HCT 116 cells (CellTiter-Glo). It counts as cell-based. Particulars: HCT 116 human colon carcinoma cells, 5 days incubation, ATP luminescence readout. As to the method:
A viability assay was performed using the CellTiter-Glo® Luminescent Cell Viability Assay (see Promega Corporation's Technical Bulletin No. 288, pp. 1-11 [revised 2/04] which is hereby incorporated by reference in its entirety). This assay is a homogeneous method of determining the number of viable cells in culture based on quantitation of the ATP present, an indicator of metabolically active cells. The assay is designed for use with multiwell formats, making it ideal for automated high-throughput screening (HTS), cell proliferation and cytotoxicity assays. The homogeneous assay procedure involves adding a single reagent (containing luciferase, luciferan substrate, and buffer) directly to cells cultured in serum-supplemented medium. Cell washing, removal of medium and multiple pipetting steps are not required. The system detects as few as 15 cells/well in a 384-well format in 10 minutes after adding reagent and mixing.
The homogeneous “add-mix-measure” format results in cell lysis and generation of a luminescent signal proportional to the amount of ATP present. The amount of ATP is directly proportional to the number of cells present in culture. The above-referenced assay generates a “glow-type” luminescent signal, produced by the luciferase reaction, which has a half-life generally greater than five hours, depending on cell type and medium used. The extended half-life eliminates the need to use reagent injectors and provides flexibility for continuous or batch mode processing of multiple plates. The unique homogeneous format avoids errors that may be introduced by other ATP measurement methods that require multiple steps.
HCT 116 cells (human colon carcinoma, ATCC-No. CCl-247) were cultivated in RPMI 1640 medium with GlutaMAX™ I (cell culture media that contains L-Alanyl-L-Glutamine [a stabilized a form/source of L-Glutamine] from Invitrogen, Cat-No. 61870-010), 2.5% Fetal Calf Serum (FCS, Sigma Cat-No. F4135 (FBS)); 100 Units/ml penicillin/100 μg/ml streptomycin (=Pen/Strep from Invitrogen Cat. No. 15140). For the assay the cells were seeded in 384 well plates, 1000 cells per well, in the same medium. The next day the test compounds were added in various concentrations ranging from 30 μM to 0.0015 μM (10 concentrations, 1:3 diluted). After 5 days the viability assay was done according to the instructions of the manufacturer. In brief: the cell-plate was equilibrated to room temperature for approximately 30 minutes and then reagent (containing luciferase, luciferan substrate, and buffer) was added. The contents were carefully mixed for 15 minutes to induce cell lysis. After 45 minutes the luminescent signal was measured in Victor 2, (scanning multiwell spectrophotometer, Wallac).
Medium: RPMI 1640 with cell culture media containing L-Alanyl-L-Glutamine [GlutaMAX™ I (Invitrogen, Cat-No. 61870)], 5% FCS (Sigma Cat.-No. F4135), Pen/Strep (Invitrogen, Cat No. 15140).
HCT116 (ATCC-No. CCl-247): 1000 cells in 60 μl per well of 384 well plate (Greiner 781098, μClear-plate white)
After seeding incubate plates 24 h at 37° C., 5% CO2
2nd. Day: Induction (Treatment with Compounds, 10 Concentrations):
In order to achieve a final concentration of 30 μM as highest concentration […] of 10 mM compound stock solution were added directly to […] media. Then step d) of the dilution procedure described below, was followed. […]
In general terms: ATP-based viability assays read luminescence as a measure of living cells.

Experiment [2] addresses T1, Aurora A kinase (Homo sapiens, UniProt O14965).
T1 sequence (O14965 1-403): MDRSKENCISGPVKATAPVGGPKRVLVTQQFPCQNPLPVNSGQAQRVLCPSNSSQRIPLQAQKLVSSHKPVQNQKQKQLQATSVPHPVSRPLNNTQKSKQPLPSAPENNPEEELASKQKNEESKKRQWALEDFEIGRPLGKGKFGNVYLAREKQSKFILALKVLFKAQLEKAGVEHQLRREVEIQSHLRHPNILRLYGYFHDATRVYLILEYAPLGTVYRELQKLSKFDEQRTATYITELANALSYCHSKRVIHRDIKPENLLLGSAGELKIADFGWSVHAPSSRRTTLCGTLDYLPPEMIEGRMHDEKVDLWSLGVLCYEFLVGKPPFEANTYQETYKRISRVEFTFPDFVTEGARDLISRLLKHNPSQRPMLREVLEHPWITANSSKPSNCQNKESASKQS
Kind of experiment: IC50 determination for inhibitors of Aurora A (ELISA-type kinase assay). The experiment is classed as biochemical. Conditions: GST-Histone H3 substrate, mutant Aurora A kinase, 30 μM ATP, 40 minutes, read-out: IC50 Aurora A kinase inhibition. How it is done:
Aurora A is a serine threonine kinase involved in spindle assembly and chromosome segregation. The assay is a typically ELISA-type assay where substrate (GST-Histone H3) is coupled to the assay-plate and is phosphorylated by the kinase. Phosphorylation is detected by a mouse anti-Phosphopeptid mAb and an HRP-labeled anti-mouse pAb. The assay is validated for IC50-determination.
Kinase activities were measured by Enzyme-Linked Immunosorbent Assay (ELISA): Maxisorp 384-well plates (Nunc) were coated with recombinant fusion protein comprising residues 1-15 of HistoneH3 fused to the N-terminus of Glutathione-S-Transferase. Plates were then blocked with a solution of 1 mg/mL I-block (a highly purified form of casein, Tropix cat. no. T2015) in phosphate-buffered saline. Kinase reactions were carried out in the wells of the ELISA plate by combining an appropriate amount of mutant Aurora A kinase with test compound and 30 μM ATP. The reaction buffer was 10× Kinase Buffer (Cell Signaling cat. no. 9802) supplemented with 1 μg/mL I-block. Reactions were stopped after 40 minutes by addition of 25 mM EDTA. After washing, substrate phosphorylation was detected by addition of anti-phospho-Histone H3 (Ser 10) 6G3 mAb (Cell Signaling cat. no. 9706) and sheep anti-mouse pAb-HRP (Amersham cat# NA931V), followed by colorimetric development with TMB (3,3′,5,5′-tetramethylbenzidine from Kirkegaard & Perry Laboratories). After readout of the adsorbance, IC50 values were calculated using a non-linear curve fit (XLfit software (ID Business Solution Ltd., Guilford, Surrey, UK)).
On the technique in general: In an ELISA, binding on a coated surface is turned into a signal by an enzyme label.

Turning to `CCN1C(=O)C(C)(C)c2cc3[nH]c(-c4n[nH]cc4NC(C)=O)nc3cc21` [Example A-1, N-[3-(5-Ethyl-7,7-dimethyl-6-oxo-1,5,6,7-tetrahydro-imidazo[4,5-f]indol-2-yl)-1H-pyrazol-4-yl]-acetamide], inhibition in experiment [1] (120 h) was half-maximal at 311 nM (IC50).

For `CCN1C(=O)C(C)(C)c2cc3[nH]c(-c4n[nH]cc4NC(=O)C(F)(F)F)nc3cc21` [Example A-5, N-[3-(5-Ethyl-7,7-dimethyl-6-oxo-1,5,6,7-tetrahydro-imidazo[4,5-f]indol-2-yl)-1H-pyrazol-4-yl]-2,2,2-trifluoro-acetamide], in experiment [2], the IC50 worked out at 29 nM.

In experiment [1] (120 h), `CCN1C(=O)C(C)(C)c2cc3[nH]c(-c4n[nH]cc4NC(=O)c4cccnc4)nc3cc21` [Example B-3, N-[3-(5-Ethyl-7,7-dimethyl-6-oxo-1,5,6,7-tetrahydro-imidazo[4,5-f]indol-2-yl)-1H-pyrazol-4-yl]-nicotinamide] had an IC50 of 57 nM.

`CCN1C(=O)C(C)(C)c2cc3[nH]c(-c4n[nH]cc4NC(=O)CC(C)C)nc3cc21` [Example B-20, N-[3-(5-Ethyl-7,7-dimethyl-6-oxo-1,5,6,7-tetrahydro-imidazo[4,5-f]indol-2-yl)-1H-pyrazol-4-yl]-3-methyl-butyramide]: the IC50 in experiment [2] was 2 nM.

For `CCN1C(=O)C(C)(C)c2cc3[nH]c(-c4n[nH]cc4NC(=O)COC)nc3cc21` [Example B-22, N-[3-(5-Ethyl-7,7-dimethyl-6-oxo-1,5,6,7-tetrahydro-imidazo[4,5-f]indol-2-yl)-1H-pyrazol-4-yl]-2-methoxy-acetamide], half-maximal inhibition in experiment [1] (120 h) (IC50) required 99 nM.

Take `CCN1C(=O)C(C)(C)c2cc3[nH]c(-c4n[nH]cc4NC(=O)c4cnccn4)nc3cc21` [Example C-11, Pyrazine-2-carboxylic acid[3-(5-ethyl-7,7-dimethyl-6-oxo-1,5,6,7-tetrahydro-imidazo[4,5-f]indol-2-yl)-1H-pyrazol-4-yl]-amide]: the IC50 in experiment [2] amounted to 3 nM.

On to `CCN1C(=O)C(C)(C)c2cc3[nH]c(-c4n[nH]cc4NC(=O)c4ccc5c(c4)OCCO5)nc3cc21` [Example C-13, 2,3-Dihydro-benzo[1,4]dioxine-6-carboxylic acid[3-(5-ethyl-7,7-dimethyl-6-oxo-1,5,6,7-tetrahydro-imidazo[4,5-f]indol-2-yl)-1H-pyrazol-4-yl]-amide], for which half-maximal inhibition in experiment [1] (IC50) was put at 63 nM.

Take `CCN1C(=O)C(C)(C)c2cc3[nH]c(-c4n[nH]cc4NC(=O)OCc4ccccc4)nc3cc21` [Example E-5, [3-(5-Ethyl-7,7-dimethyl-6-oxo-1,5,6,7-tetrahydro-imidazo[4,5-f]indol-2-yl)-1H-pyrazol-4-yl]-carbamic acid benzyl ester]: in experiment [2], the IC50 amounted to 19 nM.

Compound `CCN1C(=O)C(C)(C)c2cc3[nH]c(-c4n[nH]cc4NC(=O)OC)nc3cc21` [Example E-6, [3-(5-Ethyl-7,7-dimethyl-6-oxo-1,5,6,7-tetrahydro-imidazo[4,5-f]indol-2-yl)-1H-pyrazol-4-yl]-carbamic acid methyl ester] displayed an IC50 in experiment [1] (120 h) of 378 nM.

For `CCN(CC)C(=O)Nc1c[nH]nc1-c1nc2cc3c(cc2[nH]1)C(C)(C)C(=O)N3CC` [Example E-8, 1,1-Diethyl-3-[3-(5-ethyl-7,7-dimethyl-6-oxo-1,5,6,7-tetrahydro-imidazo[4,5-f]indol-2-yl)-1H-pyrazol-4-yl]-urea], in experiment [2], the IC50 turned out to be 1 nM.

The compound `CCN1C(=O)C(C)(C)c2cc3[nH]c(-c4n[nH]cc4NC(=O)N(C)C)nc3cc21` [Example E-10, 3-[3-(5-Ethyl-7,7-dimethyl-6-oxo-1,5,6,7-tetrahydro-imidazo[4,5-f]indol-2-yl)-1H-pyrazol-4-yl]-1,1-dimethyl-urea] registered an IC50 in experiment [1] (120 h) of 61 nM.

In experiment [1] (120 h), `CCN(CCN(C)C)C(=O)Nc1c[nH]nc1-c1nc2cc3c(cc2[nH]1)C(C)(C)C(=O)N3CC` [Example F-4, 1-(2-Dimethylamino-ethyl)-1-ethyl-3-[3-(5-ethyl-7,7-dimethyl-6-oxo-1,5,6,7-tetrahydro-imidazo[4,5-f]indol-2-yl)-1H-pyrazol-4-yl]-urea] returned an IC50 of 28 nM.

For the compound `CCN1C(=O)C(C)(C)c2cc3[nH]c(-c4n[nH]cc4NC(=O)N4CCC(OC)CC4)nc3cc21` [Example F-6], in experiment [2], the half-inhibitory concentration (IC50) was 11 nM.

For the compound `CCN1C(=O)C(C)(C)c2cc3[nH]c(-c4n[nH]c(C)c4NCc4ccccc4)nc3cc21` [Example G-2, 2-(4-Benzylamino-5-methyl-1H-pyrazol-3-yl)-5-ethyl-7,7-dimethyl-5,7-dihydro-1H-imidazo[4,5-f]indol-6-one], the IC50 in experiment [2] is 32 nM.

Turning to `CCN1C(=O)C(C)(C)c2cc3nc(-c4n[nH]cc4NS(C)(=O)=O)[nH]c3cc21` [Example H-2, N-[3-(5-Ethyl-7,7-dimethyl-6-oxo-3,5,6,7-tetrahydro-imidazo[4,5-f]indol-2-yl)-1H-pyrazol-4-yl]-methanesulfonamide], the IC50 in experiment [2] amounted to 24 nM.

Usually IC50 stands for the concentration that inhibits the measured activity by half.
